Test results taken from patent publication US20050101595A1, “N-containing cycloalkyl-substituted amino-thiazole derivatives and pharmaceutical compositions for inhibiting cell proliferation and methods for their use” (PFIZER INC., priority 2003, published 2005).
Structures can show the parent of a compound that is named as a salt. Where two headings read alike, the source gives them in different places.

Columns and labels:
CDK2/Cyclin A = CDK2/Cyclin A (Homo sapiens, UniProt P24941); experiment: Inhibition of CDK2/Cyclin A Retinoblastoma Kinase Activity; type: biochemical; conditions: for Ki: apparent Ki, CDK2/proteolyzed cyclin A, Rb fragment substrate, 25 μM ATP; for CDK2 % Inhibition At 0.03 μM: Table 2
Outline: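 Percent inhibition is calculated against DMSO-only wells after subtracting no-enzyme background. The enzyme is human CDK2 complexed with proteolyzed cyclin A, used at 10 nM or 19 nM on an Rb fragment with 25 μM [32/33P]ATP, at pH 7.4 and 30° C.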

[1] = target: human CDK4 and genetically truncated (1-264) cyclin D3 (Homo sapiens, UniProt P11802); experiment: Inhibition of CDK4/Cyclin D Retinoblastoma Kinase Activity; type: biochemical; conditions: for Ki: apparent Ki, CDK4/truncated cyclin D3, Rb fragment substrate, 25 μM ATP
Outline: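 Apparent Ki values derive from fitting activity at varied inhibitor concentrations to a competitive (or competitive tight-binding) model. Kinase reactions used 5 nM CDK4/cyclin D3(1-264), Rb fragment substrate and 25 μM ATP. Incubation ran 20 min at 30 °C, extended to 60 min under linear conditions for tight binders.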

HCT-116 cell line = experiment: Inhibition of cell growth, tetrazolium salt (MTT) assay; type: cell-based; conditions: for IC50: Homo sapiens, HCT-116, 120 h, MTT, three to five days, read-out: HCT-116 IC50; for HCT-116 % Inhibition at 0.25 μM: 0.25 μM compound
Outline: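 McCoy's 5A cultures; 4 h pre-incubation; compound dilutions in 0.5% v/v DMSO; 3–5 d, 37° C, 5% CO2; MTT 0.2 mg/mL final, 4 h; formazan dissolved in DMSO, A540; vs 0.5% DMSO vehicle.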

[2] = 0.03 μM compound, Table 4, 0.03 µM
[3] = 0.1 μM compound, HCT-116, Table 4
[4] = 0.1 μM compound, HCT-116, Table 3

Sequence of human CDK4 and genetically truncated (1-264) cyclin D3 (P11802 whole entry, the tested form may be a part): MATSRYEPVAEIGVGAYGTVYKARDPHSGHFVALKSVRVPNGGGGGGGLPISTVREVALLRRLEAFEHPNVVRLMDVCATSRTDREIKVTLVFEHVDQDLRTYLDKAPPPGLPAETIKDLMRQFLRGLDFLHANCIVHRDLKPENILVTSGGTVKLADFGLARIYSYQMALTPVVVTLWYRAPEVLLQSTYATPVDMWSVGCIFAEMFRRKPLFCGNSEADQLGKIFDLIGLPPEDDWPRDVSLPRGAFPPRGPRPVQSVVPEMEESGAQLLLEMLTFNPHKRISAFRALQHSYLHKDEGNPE
Sequence of human CDK4 and genetically truncated (1-264) cyclin D3 (P30281 1-264 partner): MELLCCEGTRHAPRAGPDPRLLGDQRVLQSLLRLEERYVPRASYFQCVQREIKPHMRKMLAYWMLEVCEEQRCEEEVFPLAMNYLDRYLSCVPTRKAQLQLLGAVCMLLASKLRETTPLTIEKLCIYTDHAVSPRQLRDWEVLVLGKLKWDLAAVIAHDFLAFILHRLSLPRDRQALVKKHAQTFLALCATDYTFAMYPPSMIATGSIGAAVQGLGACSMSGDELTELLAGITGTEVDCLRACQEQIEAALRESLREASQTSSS

Compound `Nc1nc(NC2CCN(S(=O)(=O)c3ccc(CCN4CCCC4)nc3)CC2)sc1C(=O)c1c(F)cccc1F` [Example N2, (4-Amino-2-{1-[6-(2-pyrrolidin-1-yl-ethyl)-pyridine-3-sulfonyl]-piperidin-4-ylamino}-thiazol-5-yl)-(2,6-difluoro-phenyl)-methanone Hydrochloride Salt.] has a Ki (CDK2/Cyclin A) of 1.2 nM, a Ki [1] of 0.49 nM and an IC50 (HCT-116 cell line; first HCT-116 column (c4)) of 230 nM. For the same compound, the IC50 (HCT-116 cell line; second HCT-116 column (c5)) was > 500 nM.
`CCCNC(=O)N1CCC(Nc2nc(N)c(C(=O)c3c(F)cccc3F)s2)CC1` [Example O33] was tested, and the “CDK2 % Inhibition At 0.03 μM” value (CDK2/Cyclin A; 0.03 μM compound) was 30%, the “CDK4 % Inhibition at 0.03 μM” value ([1]; 0.03 μM compound, Table 2) was −3% and the “HCT-116 % Inhibition at 0.25 μM” value (HCT-116 cell line; HCT-116, Table 2) was 31%.
Compound `CN(C)CCCS(=O)(=O)N1CCC(Nc2nc(N)c(C(=O)c3c(F)cccc3F)s2)CC1` [Example K4, 1-(4-Amino-2-{1-[3-(dimethylamino)propane-1-sulfonyl]-piperidin-4-ylamino}-thiazol-5-yl)-1-(2,6-difluoro-phenyl)-methanone.] has a Ki (CDK2/Cyclin A) of 1.8 nM, a Ki [1] of 1.3 nM and an IC50 (HCT-116 cell line; first HCT-116 column (c4)) of 410 nM. It also gave an IC50 (HCT-116 cell line; second HCT-116 column (c5)) of 1500 nM.
`CCCCCCOc1ccc(C(=O)N2CCC(Nc3nc(N)c(C(=O)c4c(F)cccc4F)s3)CC2)cc1` [Example Q31] was tested, and the “CDK2 % Inhibition at 0.03 μM” value (CDK2/Cyclin A; [2]) was −2%, the “CDK4 % Inhibition at 0.03 μM” value [1, 2] was 35% and the “HCT-116 % Inhibition at 0.1 μM” value (HCT-116 cell line; [3]) was 8%. For the same compound, the “HCT-116 % Inhibition at 0.25 μM” value (HCT-116 cell line; HCT-116, Table 4, 0.25 µM) was 41%.
`Nc1nc(NC2CCN(C(=O)c3cccnc3Oc3ccccc3)CC2)sc1C(=O)c1c(F)cccc1F` [Example R27] was tested, and the “CDK2 % Inhibition at 0.03 μM” value (CDK2/Cyclin A; at 0.03 μM) was 6%, the “CDK4 % Inhibition at 0.03 μM” value ([1]; at 0.03 μM) was 19% and the “HCT-116 % Inhibition at 0.1 μM” value (HCT-116 cell line; HCT-116 cells, at 0.1 μM) was 0%. The “HCT-116 5 Inhibition at 0.25 μM” value (HCT-116 cell line; HCT-116 cells) was 43.
In the case of `Nc1nc(NC2CCN(S(=O)(=O)c3ccc(Cl)cc3)CC2)sc1C(=O)c1c(F)cccc1F` [Example P14], the “CDK2 % Inhibition at 0.03 μM” value (CDK2/Cyclin A; 0.03 μM compound, Table 3) is reported as 60%, the “CDK4 % Inhibition at 0.03 μM” value ([1]; 0.03 μM compound, Table 3) is reported as 67% and the “HCT-116 % Inhibition at 0.1 μM” value (HCT-116 cell line; [4]) is reported as 23%. For the same compound, the “HCT-116 % Inhibition at 0.25 μM” value (HCT-116 cell line; HCT-116, Table 3) was 25%.
In the case of `Cc1nn(C)c(Cl)c1S(=O)(=O)N1CCC(Nc2nc(N)c(C(=O)c3c(F)cccc3F)s2)CC1` [Example P50], the “CDK2 % Inhibition at 0.03 μM” value (CDK2/Cyclin A; 0.03 μM compound, Table 3) is reported as 30%, the “CDK4 % Inhibition at 0.03 μM” value ([1]; 0.03 μM compound, Table 3) is reported as 35% and the “HCT-116 % Inhibition at 0.1 μM” value (HCT-116 cell line; [4]) is reported as 14%. The “HCT-116 % Inhibition at 0.25 μM” value (HCT-116 cell line; HCT-116, Table 3) was 25%.
In the case of `COc1cccc(NC(=O)N2CCC(Nc3nc(N)c(C(=O)c4c(F)cccc4F)s3)CC2)c1` [Example O15], the “CDK2 % Inhibition At 0.03 μM” value (CDK2/Cyclin A; 0.03 μM compound) is reported as 36%, the “CDK4 % Inhibition at 0.03 μM” value ([1]; 0.03 μM compound, Table 2) is reported as 4% and the “HCT-116 % Inhibition at 0.25 μM” value (HCT-116 cell line; HCT-116, Table 2) is reported as 13%.
`Cn1ccnc1SCCCS(=O)(=O)N1CCC(Nc2nc(N)c(C(=O)c3c(F)cccc3F)s2)CC1` [Example K22, 1-(4-Amino-2-{1-[3-(1-methyl-1H-imidazol-2-ylsulfanyl)-propane-1-sulfonyl]-piperidin-4-ylamino}-thiazol-5-yl)-1-(2,6-difluoro-phenyl)-methanone.] was tested, and the Ki (CDK2/Cyclin A) was 4.8 nM, the Ki [1] was 7.3 nM and the IC50 (HCT-116 cell line; first HCT-116 column (c4)) was > 500 nM. The IC50 (HCT-116 cell line; second HCT-116 column (c5)) was > 500 nM.
`Nc1nc(NC2CCN(C(=O)C3Cc4ccccc43)CC2)sc1C(=O)c1c(F)cccc1F` (stereo not drawn) [Example R94] was tested, and the “CDK2 % Inhibition at 0.03 μM” value (CDK2/Cyclin A; at 0.03 μM) was 10%, the “CDK4 % Inhibition at 0.03 μM” value ([1]; at 0.03 μM) was −5% and the “HCT-116 % Inhibition at 0.1 μM” value (HCT-116 cell line; HCT-116 cells, at 0.1 μM) was 0%. For the same compound, the “HCT-116 5 Inhibition at 0.25 μM” value (HCT-116 cell line; HCT-116 cells) was 42.
`Nc1nc(NC2CCN(C(=O)c3ccc(F)cc3C(F)(F)F)CC2)sc1C(=O)c1c(F)cccc1F` [Example R36] was tested, and the “CDK2 % Inhibition at 0.03 μM” value (CDK2/Cyclin A; at 0.03 μM) was 21%, the “CDK4 % Inhibition at 0.03 μM” value ([1]; at 0.03 μM) was 17% and the “HCT-116 % Inhibition at 0.1 μM” value (HCT-116 cell line; HCT-116 cells, at 0.1 μM) was 0%. For the same compound, the “HCT-116 5 Inhibition at 0.25 μM” value (HCT-116 cell line; HCT-116 cells) was 51.
In the case of `Nc1nc(NC2CCN(C(=O)c3cc4ccccc4s3)CC2)sc1C(=O)c1c(F)cccc1F` [Example R17], the “CDK2 % Inhibition at 0.03 μM” value (CDK2/Cyclin A; at 0.03 μM) is reported as 66%, the “CDK4 % Inhibition at 0.03 μM” value ([1]; at 0.03 μM) is reported as 73% and the “HCT-116 % Inhibition at 0.1 μM” value (HCT-116 cell line; HCT-116 cells, at 0.1 μM) is reported as 0%. The “HCT-116 5 Inhibition at 0.25 μM” value (HCT-116 cell line; HCT-116 cells) was 45.
In the case of `CS(=O)(=O)c1ccccc1S(=O)(=O)N1CCC(Nc2nc(N)c(C(=O)c3c(F)cccc3F)s2)CC1` [Example P81], the “CDK2 % Inhibition at 0.03 μM” value (CDK2/Cyclin A; 0.03 μM compound, Table 3) is reported as −5%, the “CDK4 % Inhibition at 0.03 μM” value ([1]; 0.03 μM compound, Table 3) is reported as 36% and the “HCT-116 % Inhibition at 0.1 μM” value (HCT-116 cell line; [4]) is reported as 12%. The “HCT-116 % Inhibition at 0.25 μM” value (HCT-116 cell line; HCT-116, Table 3) was 19%.
For `Nc1nc(NC2CCN(C(=O)Cc3cccs3)CC2)sc1C(=O)c1c(F)cccc1F` [Example Q65], the “CDK2 % Inhibition at 0.03 μM” value (CDK2/Cyclin A; 0.03 μM compound, Table 4) was 39%, the “CDK4 % Inhibition at 0.03 μM” value ([1]; 0.03 μM compound, Table 4) was 31% and the “HCT-116 % Inhibition at 0.1 μM” value (HCT-116 cell line; [3]) was 3%. The “HCT-116 % Inhibition at 0.25 μM” value (HCT-116 cell line; HCT-116, Table 4) was 27%.
